Measurements taken from publication PMC10056595, “Odorant-Binding Proteins and Chemosensory Proteins in Spodoptera frugiperda: From Genome-Wide Identification and Developmental Stage-Related Expression Analysis to the Perception of Host Plant Odors, Sex Pheromones, and Insecticides” (International Journal of Molecular Sciences, 2023).
Where two headings read alike, the source gives them in different places.

Key:
SfruOBP31 [1] = target: T1, SfruOBP31 (Spodoptera frugiperda, UniProt A0A2H1W9W7); experiment: fluorescence competitive binding assay with the probe 1-NPN; conditions: for Ki: competing ligand 2–20 µM, 2.0 µM 1-NPN, 2.0 µM protein, Ki < 20 µM recognized as binding; for binding of SfruOBP31 to the ligand (in words): competitive binding with 1-NPN, threshold Ki < 20 µM recognized as binding
T1 sequence (A0A2H1W9W7 entry or part of it): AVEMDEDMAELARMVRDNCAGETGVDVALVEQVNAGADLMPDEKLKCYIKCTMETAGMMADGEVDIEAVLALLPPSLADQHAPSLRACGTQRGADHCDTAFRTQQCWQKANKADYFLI
Experimental: To investigate the ligand binding ability of SfruOBP31, we used a fluorescence competitive binding assay using the fluorescent probe N-phenyl-1-naphthylamine (1-NPN). Binding experiments were performed on a microplate reader using a Greiner 96 Black Flat Bottom. Among the ligands, we tested five host volatiles from the host plant Zea mays: decanal (97% purity, Shanghai Acmec Biochemical Co., Ltd., Shanghai, China), linalool (98% purity, Shanghai Acmec Biochemical Co., Ltd.), leaf alcohol (98% purity, Shanghai Acmec Biochemical Co., Ltd.), 1-nonanol (98% purity, Shanghai Acmec Biochemical Co., Ltd.), and cis-3-hexenyl acetate (98% purity, Shanghai Acmec Biochemical Co., Ltd.); four pheromones: (Z)-9-tetradecenyl acetate (93% purity, Shenzhen Regent Biochemical Technology Co., Ltd., Shenzhen, China), (Z)-11-hexadecenyl acetate (98% purity, Shanghai Bidd Medical Technology Co., Ltd., Shanghai, China), (Z)-7-dodecenyl acetate (90% purity, Shanghai Bidd Medical Technology Co., Ltd.), and (Z)-9-dodecenyl acetate (90% purity, Shanghai Bidd Medical Technology Co., Ltd.); and five pesticides: emamectin benzoate (90% purity, Energy Chemical), lufenuron (97.4% purity, Shanghai Yuanye Biotechnology Co., Ltd., Shanghai, China), chlorfenapyr (98% purity, Shanghai Yuanye Biotechnology Co., Ltd.), chlorantraniliprole (95% purity, Shanghai Yuanye Biotechnology Co., Ltd.), and lambda-cyhalothrin (96% purity, Guangdong Liwei Chemical Co., Ltd., Maoming, China). All chemicals used for testing and the fluorescent probe 1-NPN were dissolved in GC purify-grade methanol in a 400 µM solution. The 2.0 µM protein solution (in 10 mM HEPES and 100 mM NaCl buffer, pH 7.5) was titrated with 400 µM 1-NPN to a final concentration of 2–20 µM. The binding constant of the protein to 1-NPN was analyzed by assessing the continuous change of fluorescence value. Compounds of 2–20 µM concentration were added to the mixture of 2.0 µM 1-NPN and 2.0 µM protein or 2.0 µM 1-NPN alone to determine the binding rate of the ligands to the protein and the value of the fluorescence. The final fluorescence value was calculated as the fluorescence value after the addition of 1-NPN and protein with the competing ligand minus the fluorescence value after the addition of 1-NPN with the competing ligand only.
(§1) The dissociation constants (K1-NPN) of SfruOBP31 were calculated using Graphpad Prism 8 software. The dissociation constant (Ki) of 1-NPN by competing ligands was calculated with the following formula using IC50 value: Ki = [IC50]/(1 + [1-NPN]/K1-NPN). Here, IC50 is the concentration of competing ligands when the fluorescence intensity reaches half of the initial fluorescence intensity of 1-NPN, and [1-NPN] indicates the concentration of 1-NPN [16]. A threshold of Ki < 20 µM was recognized as binding.

SfruOBP31 [2] = target: T1, SfruOBP31; experiment: 1-NPN fluorescence binding (titration of SfruOBP31 with 1-NPN); conditions: binding curve of SfruOBP31 with 1-NPN
Experimental: To investigate the ligand binding ability of SfruOBP31, we used a fluorescence competitive binding assay using the fluorescent probe N-phenyl-1-naphthylamine (1-NPN). Binding experiments were performed on a microplate reader using a Greiner 96 Black Flat Bottom. […] The binding constant of the protein to 1-NPN was analyzed by assessing the continuous change of fluorescence value. Compounds of 2–20 µM concentration were added to the mixture of 2.0 µM 1-NPN and 2.0 µM protein or 2.0 µM 1-NPN alone to determine the binding rate of the ligands to the protein and the value of the fluorescence. The final fluorescence value was calculated as the fluorescence value after the addition of 1-NPN and protein with the competing ligand minus the fluorescence value after the addition of 1-NPN with the competing ligand only.
as §1, with “A threshold of Ki < 20 µM was recognized as binding.” left out

[3] = Ki = [IC50]/(1 + [1-NPN]/K1-NPN), read-out: Ki
[4] = Ki = [IC50]/(1 + [1-NPN]/K1-NPN)

Compound | Ki (SfruOBP31 [1]; [3]) | Ki (SfruOBP31 [1]; [4]) | binding of SfruOBP31 to the ligand (in words) (SfruOBP31 [1]) | also measured
CCCCCCCCCC=O [decanal] | 19.6 µM |  |  | 
CCOCn1c(-c2ccc(Cl)cc2)c(C#N)c(Br)c1C(F)(F)F [chlorfenapyr, reference compound] |  |  |  | Ki (SfruOBP31 [1]; read-out: Ki (unit inferred)): 8.1 µM
CNC(=O)c1cc(Cl)cc(C)c1NC(=O)c1cc(Br)nn1-c1ncccc1Cl [chlorantraniliprole, reference compound] |  | 22.3 µM | lack of binding | 
CCCC/C=C\CCCCCCCCCCOC(C)=O [(Z)-11-hexadecenyl acetate] | 5.4 µM |  | selectively binds | 
c1ccc(Nc2cccc3ccccc23)cc1 [1-NPN, N-phenyl-1-naphthylamine] |  |  |  | Bmax (1-NPN, printed in Figure 11A) (SfruOBP31 [2]): 702,842
O=C(NC(=O)c1c(F)cccc1F)Nc1cc(Cl)c(OC(F)(F)C(F)C(F)(F)F)cc1Cl (centres unmarked) [lufenuron, reference compound] |  | 37.6 µM | lack of binding | 
emamectin benzoate [reference compound] | 27.6 µM |  | lack of binding | 
C=CC(C)(O)CCC=C(C)C (centres unmarked) [linalool] |  | 4.04 µM |  | 
CC/C=C\CCOC(C)=O [cis-3-hexenyl acetate] | 6.38 µM |  |  | 
CCCCCCCCCO [1-nonanol] | 14.2 µM |  |  | 
CC1(C)[C@H](C(=O)O[C@H](C#N)c2cccc(Oc3ccccc3)c2)[C@@H]1/C=C(\Cl)C(F)(F)F (racemic) [lambda-cyhalothrin, reference compound] |  | 2.78 µM |  | 
CCCC/C=C\CCCCCCCCOC(C)=O [(Z)-9-tetradecenyl acetate] | 5.02 µM |  | selectively binds | 
